Data published in patent US12509460B2 (Skyhawk Therapeutics, Inc., priority 2019, dated 2025).
Where two headings read alike, the source gives them in different places.

What was measured:
[1] = system: mHTT protein in GM04724 (CAG 70/20) Huntington's disease patient lymphoblast cells; experiment: mHTT protein assay, 2B7-MW1 assay via Mesoscale Discovery (MSD); format: cell-based, human
Protocol: Example A10: mHTT Protein Assay
Compounds are tested on GM04724 (CAG 70/20) Huntington's disease patient lymphoblast cells at doses ranging from 10 μM to 0.6 nM. 4,500 cells/well are seeded in 384 well plates. One plate replica is carried out for parallel viability testing by CellTiter Glo (CTG). Compounds are incubated for 48 hours. mHTT protein levels are assessed by the 2B7-MW1 assay via Mesoscale Discovery (MSD) as previously reported (Macdonald et al., 2014). The antibody pair is comprised of previously characterized monoclonals (2B7 and MW1) interrogating two regions for HTT conformation and biological properties: the N, 17 domain and the polyQ domain (Baldo et al., 2012; Ko et., 2001). 2B7-MW1 is […] specific levels of HTT at the time of treatment. 2B7-MW1 is dependent on polyQ expansion (e.g., the higher the expansion the higher the signal) and on mHTT size (e.g., a similar polyQ will give higher signal with smaller HTT size). The viability readout is carried out by CTG according to the manufacturer's instructions.

MDR1 = experiment: Blood-brain-barrier (BBB) penetration potential via MDCK-MDR1 permeability assay; details: dog, MDCK-MDR1, pH 7.4, MDCK-MDR1: Efflux
[2] = system: MDR1-MDCK cell monolayers; experiment: as above
MDR1 (P-gp) = experiment: as above; details: dog; for Papp A→B at 120 min, 5 μM: MDCK-MDR1, pH 7.4, MDCK-MDR1: Papp A-B; for Papp B→A at 120 min, 5 μM: MDCK-MDR1, pH 7.4, MDCK-MDR1: Papp B-A
[3] = system: SMN protein in spinal muscular atrophy (SMA) patient fibroblasts (GM03813, Coriell); experiment: SMN protein assay, Mesoscale Discovery (MSD); format: cell-based, human; details: read-out: SMN2 protein EC50
Protocol: Example A12: SMN Protein Assay
Compounds are tested on spinal muscular atrophy (SMA) patient fibroblasts (GM03813, Coriell) at doses ranging from 2.5 μM to 0.6 nM. 7000 cells/well are seeded in 96-well plates. Compounds are incubated for 48 hours and the cells were lysed with 100 μL of lysis buffer. 20 μL of lysate is used for SMN protein measurement by Mesoscale Discovery (MSD) assay developed by PharmOptima (Michigan). A standard curve prepared with SMN protein ranging from 1 μg/ml to 19.5 pg/ml is used in each MSD plate to calculate the absolute SMN protein amount in each sample.

[4] = system: SMN FL and SMN Δ7 in spinal muscular atrophy (SMA) patient fibroblasts (GM03813, Coriell); experiment: Quantitative splicing assay (SMN), qPCR; format: cell-based, human; details: Homo sapiens, Fibroblast, 24 h, read-out: SMN2 Splicing FL EC50
Protocol: Spinal muscular atrophy (SMA) patient fibroblasts (GM03813, Coriell) are plated in 96-well plates at 50,000 cells/well. […] Treated cells are lysed and cDNA synthesized using the Fast Advanced Cells-to-Ct kit (Thermofisher A35378) according to the manufacturer's instructions. 2 μL of each cDNA are used in qPCR reactions. […] Reactions are run in a Quant Studio 6 qPCR instrument with default settings.

[5] = GM04724 Huntington's disease patient lymphoblasts
[6] = SMA patient fibroblasts GM03813, 48 hours, MSD
[7] = SMA patient fibroblasts GM03813, 24 h, qPCR
[8] = GM04724 (CAG 70/20) Huntington's disease patient lymphoblasts
[9] = SMA patient fibroblasts (GM03813), 48 hours
[10] = SMA patient fibroblasts (GM03813)

SMILES	EC50 [1, 5] [nM]	efflux ratio at 120 min, 5 μM (MDR1; efflux ratio)	MDCK-MDR1: % Recov A-B ([2]; A-B direction) [%]	MDCK-MDR1: % Recov B-A ([2]; B-A direction) [%]	Papp A→B at 120 min, 5 μM (MDR1 (P-gp); A-B direction) [×10⁻⁶ cm/s]	Papp B→A at 120 min, 5 μM (MDR1 (P-gp); B-A direction) [×10⁻⁶ cm/s]	EC50 [3, 6] [nM]	EC50 [4, 7] [nM]	EC50 [1, 8] [nM]	efflux ratio at 120 min, 5 μM (MDR1)	MDCK-MDR1: % Recov A-B ([2]; A-B) [%]	MDCK-MDR1: % Recov B-A ([2]; B-A) [%]	Papp A→B at 120 min, 5 μM (MDR1 (P-gp); A-B) [×10⁻⁶ cm/s]	Papp B→A at 120 min, 5 μM (MDR1 (P-gp); B-A) [×10⁻⁶ cm/s]	EC50 [3, 9] [nM]	EC50 [4, 10] [nM]	mHTT protein EC50 [1, 8]
CN(c1ccc(-c2cc3ncn(CC(F)(F)F)c(=O)c3cc2O)nn1)[C@@H]1C[C@H]2CCC[C@H](N2)[C@@H]1F [Compound 58A, 7-(6-(((1S,2S,3R,5R)-2-fluoro-9-azabicyclo[3.3.1]nonan-3-yl)(methyl)amino)pyridazin-3-yl)-6-hydroxy-3-(2,2,2-trifluoroethyl)quinazolin-4(3H)-one]	101 to 500	201	86	89	0.36	71.4	0.01 to 15	101 to 500	–	–	–	–	–	–	–	–	–
CN(c1ccc(-c2cc3ncn(CC(F)(F)F)c(=O)c3cc2O)nn1)[C@H]1C[C@@H]2CC[C@@H](N2)[C@H]1F [Compound 81B, 7-(6-(((1R,2R,3S,5S)-2-fluoro-8-azabicyclo[3.2.1]octan-3-yl)(methyl)amino)pyridazin-3-yl)-6-hydroxy-3-(2,2,2-trifluoroethyl)quinazolin-4(3H)-one]	51 to 100	138	96	100	0.4	54.6	0.01 to 15	16 to 50	–	–	–	–	–	–	–	–	–
CN(c1ccc(-c2ccc(-c3ccccn3)cc2O)nn1)[C@@H]1C[C@H]2CCC[C@H](N2)[C@@H]1F [Compound 23A, 2-(6-(((1S,2S,3R,5R)-2-fluoro-9-azabicyclo[3.3.1]nonan-3-yl)(methyl)amino)pyridazin-3-yl)-5-(pyridin-2-yl)phenol]	51 to 100	10	64	83	3.33	34.9	16 to 50	51 to 100	–	–	–	–	–	–	–	–	–
Cc1nc2cc(-c3ccc(N(C)[C@H]4C[C@@H]5CC[C@@H](N5)[C@H]4F)nn3)c(O)cc2c(=O)n1CC(F)(F)F [Compound 113B, 7-(6-(((1R,2R,3S,5S)-2-fluoro-8-azabicyclo[3.2.1]octan-3-yl)(methyl)amino)pyridazin-3-yl)-6-hydroxy-2-methyl-3-(2,2,2-trifluoroethyl)quinazolin-4(3H)-one]	–	–	–	–	–	–	–	–	101 to 500	232	101	123	0.3	68.4	0.01 to 15	16 to 50	–
CN(c1ccc(-c2ccc(-c3cnn(C(F)F)c3)cc2O)nn1)[C@@H]1C[C@H]2CCC[C@H](N2)[C@@H]1F [Compound 21A, 5-(1-(difluoromethyl)-1H-pyrazol-4-yl)-2-(6-(((1S,2S,3R,5R)-2-fluoro-9-azabicyclo[3.3.1]nonan-3-yl)(methyl)amino)pyridazin-3-yl)phenol]	16 to 50	10	34	71	1.99	19.3	0.01 to 15	51 to 100	–	–	–	–	–	–	–	–	–
CN(c1ccc(-c2cc3oc(C(=O)N4CCC4)cc3cc2O)nn1)[C@@H]1C[C@H]2CC[C@H](N2)[C@@H]1F [Compound 112A, azetidin-1-yl(6-(6-(((1S,2S,3R,5R)-2-fluoro-8-azabicyclo[3.2.1]octan-3-yl)(methyl)amino)pyridazin-3-yl)-5-hydroxybenzofuran-2-yl)methanone]	–	–	–	–	–	–	–	–	51 to 100	74	95	78	0.6	43.8	0.01 to 15	51 to 100	–
CN(c1ccc(-c2cc3oc(C(=O)N4CCC4)cc3cc2O)nn1)[C@H]1C[C@@H]2CC[C@H]([C@H]1F)N2C [Compound 107B, azetidin-1-yl(6-(6-(((1R,2R,3S,5S)-2-fluoro-8-methyl-8-azabicyclo[3.2.1]octan-3-yl)(methyl)amino)pyridazin-3-yl)-5-hydroxybenzofuran-2-yl)methanone]	–	–	–	–	–	–	–	–	–	47	76	84	0.99	46.3	16 to 50	101 to 500	E (501 ≤ E ≤ 10.000)
CN(c1ccc(-c2ccc(-n3ccnc3)cc2O)nn1)[C@@H]1C[C@H]2CCC[C@H](N2)[C@@H]1F [Compound 11A, 2-(6-(((1S,2S,3R,5R)-2-fluoro-9-azabicyclo[3.3.1]nonan-3-yl)(methyl)amino)pyridazin-3-yl)-5-(1H-imidazol-1-yl)phenol]	0.01 to 15	19	79	90	2.76	53.2	0.01 to 15	51 to 100	–	–	–	–	–	–	–	–	–
Cc1cc(=O)c2cc(-c3ccc(N(C)[C@H]4C[C@@H]5CC[C@H]([C@H]4F)N5C)nn3)c(O)cc2o1 [Compound 100B, 6-(6-(((1R,2R,3S,5S)-2-fluoro-8-methyl-8-azabicyclo[3.2.1]octan-3-yl)(methyl)amino)pyridazin-3-yl)-7-hydroxy-2-methyl-4H-chromen-4-one]	–	–	–	–	–	–	–	–	51 to 100	4	79	80	9.57	38.7	16 to 50	16 to 50	–
CN(c1ccc(-c2cc(F)c(-n3ccnn3)cc2O)nn1)[C@H]1C[C@@H]2CC[C@H]([C@H]1F)N2C [Compound 103B, 4-fluoro-2-(6-(((1R,2R,3S,5S)-2-fluoro-8-methyl-8-azabicyclo[3.2.1]octan-3-yl)(methyl)amino)pyridazin-3-yl)-5-(1H-1,2,3-triazol-1-yl)phenol]	–	–	–	–	–	–	–	–	–	4	95	94	12.6	49.1	51 to 100	101 to 500	E (501 ≤ E ≤ 10.000)
CN(c1ccc(-c2cc(F)c(-c3ccn(C)c(=O)c3)cc2O)nn1)[C@@H]1C[C@H]2CC(F)(F)[C@@H](C1)N2 [Compound 22A, 4-(4-(6-(((1S,3R,5R)-6,6-difluoro-8-azabicyclo[3.2.1]octan-3-yl)(methyl)amino)pyridazin-3-yl)-2-fluoro-5-hydroxyphenyl)-1-methylpyridin-2(1H)-one]	–	45	86	94	1.82	80.9	0.01 to 15	0.01 to 15	–	–	–	–	–	–	–	–	–
CN(c1ccc(-c2cc3c(F)cn(C)c(=O)c3cc2O)nn1)[C@H]1C[C@@H]2CC[C@@H](N2)[C@H]1F [Compound 54B, 4-fluoro-6-(6-(((1R,2R,3S,5S)-2-fluoro-8-azabicyclo[3.2.1]octan-3-yl)(methyl)amino)pyridazin-3-yl)-7-hydroxy-2-methylisoquinolin-1(2H)-one]	–	27	99	107	2.28	61.5	0.01 to 15	0.01 to 15	–	–	–	–	–	–	–	–	–
